Experimental data taken from patent publication US4409233A, “Highly concentrated preparations of dopa compounds” (Sankyo Company, Limited, priority 1978, dated 1983).
Values after ≈ are worked out from the molar mass of the structure shown.

What was measured:
[1] = cited from earlier work
[2] = Solubility of dopa compounds in water; assay type: physicochemical; settings: 50 mg of dopa

| SMILES | solubility in water [1] [µg/mL] | solubility in water (in words) [1] | volume of water necessary to dissolve the minimal dose of dopa [2] [mL] |
| --- | --- | --- | --- |
| NC(Cc1ccc(O)c(O)c1)C(=O)O (stereo not drawn) [dopa, β-(3,4-dihydroxyphenyl)-α-alanine] | 2500 (≈ 12.7 mM) | poor solubility in water | 20 |
| C[C@](N)(Cc1ccc(O)c(O)c1)C(=O)O [methyldopa, L-3-(3,4-dihydroxyphenyl)-2-methylalanine] | – | poor solubility in water | – |
